Data as given in US20240382483A1, “HETEROCYCLIC EGFR INHIBITORS FOR USE IN THE TREATMENT OF CANCER” (Blueprint Medicines Corporation, priority 2021, published 2024).

Assays:
EGFR (L858R T790M C797S) = target: T1, EGFR (L858R T790M C797S) (Homo sapiens, UniProt P00533, C797S/L858R/T790M); experiment: Biochemical EGFR inhibition assay (Caliper mobility shift), EGFR LRTMCS; conditions: LRTMCS (PH) IC50 (nM) @ 1 mM ATP (Num), EGFR LRTMCS mutant
T1 construct: purchased SignalChem E10-122VG
Description: Reactions proceeded until between 10% to 20% total peptides were phosphorylated at room temperature (25° C.) and were terminated with 35 mM 2,2′,2″,2′″-(ethane-1,2-diyldinitrilo)tetraacetic acid (EDTA). Product was detected using the Caliper mobility shift detection method where the phosphorylated peptide (product) and substrate were electrophoretically separated and measured. Percent activity was plotted against log concentration of compound and points to generate an apparent IC50.

[1] = target: T2, intracellular phosphorylation of EGFR in NCI-H1975 cell line that harbors the EGFR L858R T790M mutations (Homo sapiens, UniProt P00533, L858R/T790M); experiment: NCI-H1975 pEGFR AlphaLISA assay; assay type: cell-based; conditions: NCI-H1975 cells (EGFR L858R T790M), p-EGFR (Tyr1068), 4-5 hours incubation; read-out: Ext pEGFR H1975 GMean IC50 (nM) Protocol: @Pharmaron AlphaLISA (Num)
T2 construct: NCI-H1975 cell line that harbors the EGFR L858R T790M mutations (ATCC, CRL-5908); host or cells: NCI-H1975
Description: On the next day, the test compounds and DMSO control were added into H1975 cell plate followed by incubation at 37C/5% CO2 for 4-5 hours. […] Then 5 μL of a donor bead mix was added to each well followed by overnight incubation at room temperature in dark. On the next day, the plate was read at a compatible plate reader to obtain pEGFR signal. Percent of pEGFR inhibition was plotted against log concentration of compounds to generate IC50 values.

T1 sequence (P00533 25-1210 T790M/C797S/L858R): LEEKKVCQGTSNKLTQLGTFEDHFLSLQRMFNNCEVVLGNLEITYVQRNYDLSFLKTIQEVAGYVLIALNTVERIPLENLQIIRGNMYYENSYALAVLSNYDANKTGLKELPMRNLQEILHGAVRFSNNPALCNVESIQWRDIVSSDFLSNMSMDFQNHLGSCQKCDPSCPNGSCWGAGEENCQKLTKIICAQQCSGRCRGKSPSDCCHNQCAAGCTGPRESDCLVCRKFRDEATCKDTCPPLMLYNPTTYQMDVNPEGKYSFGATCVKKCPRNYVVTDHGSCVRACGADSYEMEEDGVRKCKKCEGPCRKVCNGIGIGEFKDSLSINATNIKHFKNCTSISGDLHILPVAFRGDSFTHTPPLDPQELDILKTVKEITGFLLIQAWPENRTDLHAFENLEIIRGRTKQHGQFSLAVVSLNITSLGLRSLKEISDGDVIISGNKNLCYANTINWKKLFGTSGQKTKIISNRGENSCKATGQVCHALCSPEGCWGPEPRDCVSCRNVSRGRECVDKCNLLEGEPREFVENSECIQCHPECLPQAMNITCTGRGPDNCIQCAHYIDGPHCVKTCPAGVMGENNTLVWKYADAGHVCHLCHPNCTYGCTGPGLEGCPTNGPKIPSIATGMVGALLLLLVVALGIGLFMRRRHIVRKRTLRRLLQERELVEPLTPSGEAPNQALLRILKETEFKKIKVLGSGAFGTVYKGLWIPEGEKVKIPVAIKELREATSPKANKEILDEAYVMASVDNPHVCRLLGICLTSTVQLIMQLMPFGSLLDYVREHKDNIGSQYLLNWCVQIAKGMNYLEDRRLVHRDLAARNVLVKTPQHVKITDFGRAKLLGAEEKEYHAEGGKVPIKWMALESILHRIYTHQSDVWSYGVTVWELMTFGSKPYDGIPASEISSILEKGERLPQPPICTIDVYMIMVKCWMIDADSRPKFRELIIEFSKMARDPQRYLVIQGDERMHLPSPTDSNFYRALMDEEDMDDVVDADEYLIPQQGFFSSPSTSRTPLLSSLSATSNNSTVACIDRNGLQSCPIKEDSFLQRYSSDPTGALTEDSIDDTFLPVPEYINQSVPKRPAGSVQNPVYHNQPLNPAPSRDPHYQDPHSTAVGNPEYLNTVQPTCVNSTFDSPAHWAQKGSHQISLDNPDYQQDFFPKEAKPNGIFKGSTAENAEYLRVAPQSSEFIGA
T2 sequence (P00533 25-1210 T790M/L858R): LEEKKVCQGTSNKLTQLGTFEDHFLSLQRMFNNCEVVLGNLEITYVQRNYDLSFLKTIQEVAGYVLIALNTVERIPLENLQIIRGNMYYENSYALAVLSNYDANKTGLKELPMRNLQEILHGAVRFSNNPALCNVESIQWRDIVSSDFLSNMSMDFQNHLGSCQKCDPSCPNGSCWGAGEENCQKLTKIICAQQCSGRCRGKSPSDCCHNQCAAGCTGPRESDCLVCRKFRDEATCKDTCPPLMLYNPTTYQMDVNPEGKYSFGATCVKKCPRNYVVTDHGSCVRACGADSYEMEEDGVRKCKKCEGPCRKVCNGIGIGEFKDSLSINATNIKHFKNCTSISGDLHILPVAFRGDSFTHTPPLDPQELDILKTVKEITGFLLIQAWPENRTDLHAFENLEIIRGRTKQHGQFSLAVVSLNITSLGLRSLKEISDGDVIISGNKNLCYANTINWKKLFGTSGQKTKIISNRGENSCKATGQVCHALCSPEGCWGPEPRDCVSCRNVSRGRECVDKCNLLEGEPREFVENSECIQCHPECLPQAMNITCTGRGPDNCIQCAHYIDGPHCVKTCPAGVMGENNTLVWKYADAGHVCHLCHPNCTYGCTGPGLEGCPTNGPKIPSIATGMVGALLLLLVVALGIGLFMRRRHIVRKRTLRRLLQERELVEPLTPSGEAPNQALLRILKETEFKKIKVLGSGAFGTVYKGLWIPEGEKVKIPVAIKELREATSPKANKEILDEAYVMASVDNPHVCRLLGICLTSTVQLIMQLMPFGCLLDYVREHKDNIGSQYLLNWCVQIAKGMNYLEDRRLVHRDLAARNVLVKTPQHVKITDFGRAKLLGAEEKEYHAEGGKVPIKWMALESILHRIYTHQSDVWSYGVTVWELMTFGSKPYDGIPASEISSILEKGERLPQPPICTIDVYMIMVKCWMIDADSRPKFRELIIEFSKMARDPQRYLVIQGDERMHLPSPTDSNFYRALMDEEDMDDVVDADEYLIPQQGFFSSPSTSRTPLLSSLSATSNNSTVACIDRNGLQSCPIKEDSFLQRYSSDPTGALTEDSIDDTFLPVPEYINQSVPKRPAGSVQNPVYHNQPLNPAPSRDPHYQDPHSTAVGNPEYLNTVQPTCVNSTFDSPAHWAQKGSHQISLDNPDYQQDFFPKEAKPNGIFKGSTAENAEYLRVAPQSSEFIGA

Row | IC50 (EGFR (L858R T790M C797S)) | IC50 [1] | Compound
1 | < 15 nM | 10 to 20 nM | [2H]C([2H])([2H])O[C@H]1CCN(c2nccc(Nc3cc4c(C(C)C)cnc(N5C[C@H](O)[C@H]5C)c4cn3)n2)C[C@H]1F [Example 138, (2R,3S)-1-(6-((2-((3R,4S)-3-fluoro-4-(methoxy-d3)piperidin-1-yl)pyrimidin-4-yl)amino)-4-isopropyl-2,7-naphthyridin-1-yl)-2-methylazetidin-3-ol]
2 | 15 to 20 nM | > 50 nM | CC(C)c1cnc(N2CC(N3CCCC3=O)C2)c2cnc(Nc3ccnc(N4CC[C@@H](O)[C@@](C)(F)C4)n3)cc12 [Example 91, 1-(1-(6-((2-((3S,4R)-3-fluoro-4-hydroxy-3-methylpiperidin-1-yl)pyrimidin-4-yl)amino)-4-isopropyl-2,7-naphthyridin-1-yl)azetidin-3-yl)pyrrolidin-2-one]
3 | < 15 nM | 10 to 20 nM | CO[C@H]1CCN(c2nccc(Nc3cc4c(C(C)C)cnc(N5C[C@H](O)[C@H]5C)c4cn3)n2)C[C@H]1F [Example 149, (2R,3S)-1-(6-((2-((3R,4S)-3-fluoro-4-methoxypiperidin-1-yl)pyrimidin-4-yl)amino)-4-isopropyl-2,7-naphthyridin-1-yl)-2-methylazetidin-3-ol]
4 | 15 to 20 nM | 30 to 50 nM | CC(C)c1cnc(N2C[C@H](n3ccnn3)[C@H]2C)c2cnc(Nc3ccnc(N4CC[C@@](C)(O)[C@@H](F)C4)n3)cc12 [Example 144, (3S,4R)-3-fluoro-1-(4-((5-isopropyl-8-((2R,3S)-2-methyl-3-(1H-1,2,3-triazol-1-yl)azetidin-1-yl)-2,7-naphthyridin-3-yl)amino)pyrimidin-2-yl)-4-methylpiperidin-4-ol]
5 | < 15 nM | 10 to 20 nM | CC(C)c1cnc(N2CC(C)(C(=O)N(C)C)C2)c2cnc(Nc3ccnc(N4CC[C@@H](O)[C@@](C)(F)C4)n3)cc12 [Example 93, 1-(6-((2-((3S,4R)-3-fluoro-4-hydroxy-3-methylpiperidin-1-yl)pyrimidin-4-yl)amino)-4-isopropyl-2,7-naphthyridin-1-yl)-N,N,3-trimethylazetidine-3-carboxamide]
6 | 30 to 100 nM | > 50 nM | CC(C)c1cnc(N2C[C@H](O)[C@H]2C)c2cnc(Nc3ccnc(N4C[C@H](F)[C@H](O)[C@](C)(F)C4)n3)cc12 (single isomer, unassigned) [Example 134, (3R,4S,5S)-3,5-difluoro-1-(4-((8-((2R,3S)-3-hydroxy-2-methylazetidin-1-yl)-5-isopropyl-2,7-naphthyridin-3-yl)amino)pyrimidin-2-yl)-3-methylpiperidin-4-ol or (3S,4R,5R)-3,5-difluoro-1-(4-((8-((2R,3S)-3-hydroxy-2-methylazetidin-1-yl)-5-isopropyl-2,7-naphthyridin-3-yl)amino)pyrimidin-2-yl)-3-methylpiperidin-4-ol]
7 | < 15 nM | 20 to 30 nM | CC(C)c1cnc(N2CC[C@@H](CS(C)(=O)=O)C2)c2cnc(Nc3ccnc(N4CC[C@@H](O)[C@@](C)(F)C4)n3)cc12 (single isomer, unassigned) [Example 207, (3S,4R)-3-fluoro-1-(4-((5-isopropyl-8-((R)-3-((methylsulfonyl)methyl)pyrrolidin-1-yl)-2,7-naphthyridin-3-yl)amino)pyrimidin-2-yl)-3-methylpiperidin-4-ol or (3S,4R)-3-fluoro-1-(4-((5-isopropyl-8-((S)-3-((methylsulfonyl)methyl)pyrrolidin-1-yl)-2,7-naphthyridin-3-yl)amino)pyrimidin-2-yl)-3-methylpiperidin-4-ol]
8 | < 15 nM | 30 to 50 nM | CC(C)c1cnc(N2C[C@H](O)[C@H]2C)c2cnc(Nc3ccnc(N4CC[C@@](C)(O)[C@@H](F)C4)n3)cc12 (single isomer, unassigned) [Example 173, (3S,4R)-3-fluoro-1-(4-((8-((2R,3S)-3-hydroxy-2-methylazetidin-1-yl)-5-isopropyl-2,7-naphthyridin-3-yl)amino)pyrimidin-2-yl)-4-methylpiperidin-4-ol or (3R,4S)-3-fluoro-1-(4-((8-((2R,3S)-3-hydroxy-2-methylazetidin-1-yl)-5-isopropyl-2,7-naphthyridin-3-yl)amino)pyrimidin-2-yl)-4-methylpiperidin-4-ol]
9 | < 15 nM | 30 to 50 nM | CC(C)c1cnc(N2C[C@H](O)[C@H]2C)c2cnc(Nc3ccnc(N4CC[C@@H](O)C(C)(C)C4)n3)cc12 (single isomer, unassigned) [Example 168, (R)-1-(4-((8-((2R,3S)-3-hydroxy-2-methylazetidin-1-yl)-5-isopropyl-2,7-naphthyridin-3-yl)amino)pyrimidin-2-yl)-3,3-dimethylpiperidin-4-ol or (S)-1-(4-((8-((2R,3S)-3-hydroxy-2-methylazetidin-1-yl)-5-isopropyl-2,7-naphthyridin-3-yl)amino)pyrimidin-2-yl)-3,3-dimethylpiperidin-4-ol]

Second part, the compound before the results:

Row | Compound | IC50 (EGFR (L858R T790M C797S)) | IC50 [1]
10 | CC(C)c1cnc(N2CC(F)C2)c2cnc(Nc3ccnc(N4CC[C@@H](O)[C@@](C)(F)C4)n3)cc12 [Example 47, (3S,4R)-3-fluoro-1-(4-((8-(3-fluoroazetidin-1-yl)-5-isopropyl-2,7-naphthyridin-3-yl)amino)pyrimidin-2-yl)-3-methylpiperidin-4-ol] | < 15 nM | 20 to 30 nM
11 | CC(C)c1cnc(N2CC(C#N)C2)c2cnc(Nc3ccnc(N4CC[C@@H](O)[C@@](C)(F)C4)n3)cc12 [Example 58, 1-(6-((2-((3S,4R)-3-fluoro-4-hydroxy-3-methylpiperidin-1-yl)pyrimidin-4-yl)amino)-4-isopropyl-2,7-naphthyridin-1-yl)azetidine-3-carbonitrile] | < 15 nM | 10 to 20 nM
12 | CC(C)c1cnc(N2CC[C@H]2CF)c2cnc(Nc3ccnc(N4CC[C@@H](O)[C@@](C)(F)C4)n3)cc12 [Example 76, (3S,4R)-3-fluoro-1-(4-((8-((S)-2-(fluoromethyl)azetidin-1-yl)-5-isopropyl-2,7-naphthyridin-3-yl)amino)pyrimidin-2-yl)-3-methylpiperidin-4-ol] | < 15 nM | 10 to 20 nM
13 | CC(C)c1cnc(N2CC(F)(CO)C2)c2cnc(Nc3ccnc(N4CC[C@@H](O)[C@@](C)(F)C4)n3)cc12 [Example 67, (3S,4R)-3-fluoro-1-(4-((8-(3-fluoro-3-(hydroxymethyl)azetidin-1-yl)-5-isopropyl-2,7-naphthyridin-3-yl)amino)pyrimidin-2-yl)-3-methylpiperidin-4-ol] | 15 to 20 nM | > 50 nM
14 | Cc1nnc(-c2ncc(C(C)C)c3cc(Nc4ccnc(N5CC[C@@H](O)[C@@](C)(F)C5)n4)ncc23)o1 [Example 5, (3S,4R)-3-fluoro-1-(4-((5-isopropyl-8-(5-methyl-1,3,4-oxadiazol-2-yl)-2,7-naphthyridin-3-yl)amino)pyrimidin-2-yl)-3-methylpiperidin-4-ol] | < 15 nM | 10 to 20 nM
15 | CO[C@@H]1CCN(c2nccc(Nc3cc4c(C(C)C)cnc(N5CCC56CN(C)C6)c4cn3)n2)C[C@@H]1F [Example 41, N-(2-((3S,4R)-3-fluoro-4-methoxypiperidin-1-yl)pyrimidin-4-yl)-5-isopropyl-8-(6-methyl-1,6-diazaspiro[3.3]heptan-1-yl)-2,7-naphthyridin-3-amine] | < 15 nM | 30 to 50 nM
16 | CC(C)c1cnc(N2C[C@@H](F)[C@H]2C)c2cnc(Nc3ccnc(N4CC[C@@H](O)[C@@](C)(F)C4)n3)cc12 (single isomer, unassigned) [Example 33, (3S,4R)-3-fluoro-1-(4-((8-((2R,3R)-3-fluoro-2-methylazetidin-1-yl)-5-isopropyl-2,7-naphthyridin-3-yl)amino)pyrimidin-2-yl)-3-methylpiperidin-4-ol or (3S,4R)-3-fluoro-1-(4-((8-((2S,3S)-3-fluoro-2-methylazetidin-1-yl)-5-isopropyl-2,7-naphthyridin-3-yl)amino)pyrimidin-2-yl)-3-methylpiperidin-4-ol] | < 15 nM | < 10 nM
17 | CC(C)c1cnc(-c2cnn(C3CN(C)C3)c2)c2cnc(Nc3ccnc(N4CC[C@@H](O)[C@@](C)(F)C4)n3)cc12 [Example 22, (3S,4R)-3-fluoro-1-(4-((5-isopropyl-8-(1-(1-methylazetidin-3-yl)-1H-pyrazol-4-yl)-2,7-naphthyridin-3-yl)amino)pyrimidin-2-yl)-3-methylpiperidin-4-ol] | 15 to 20 nM | > 50 nM
18 | CC(C)c1cnc(N2CC[C@H](O)[C@H]2C)c2cnc(Nc3ccnc(N4CC[C@@H](O)[C@@](C)(F)C4)n3)cc12 [Example 81, (3S,4R)-3-fluoro-1-(4-((8-((2R,3S)-3-hydroxy-2-methylpyrrolidin-1-yl)-5-isopropyl-2,7-naphthyridin-3-yl)amino)pyrimidin-2-yl)-3-methylpiperidin-4-ol] | 15 to 20 nM | > 50 nM
19 | CC(C)c1ccc([C@H]2C[C@H](CS(C)(=O)=O)C2)c2cnc(Nc3ccnc(N4CC[C@@H](O)[C@@](C)(F)C4)n3)cc12 [Example 1, (3S,4R)-3-fluoro-1-(4-((5-isopropyl-8-((1r,3S)-3-((methylsulfonyl)methyl)cyclobutyl)isoquinolin-3-yl)amino)pyrimidin-2-yl)-3-methylpiperidin-4-ol] | < 15 nM | < 10 nM
